Assay results from PMC8427794 (ACS Omega, 2021).
Read-outs that look alike come from different tables or passages of the source. Each block holds one compound with its values, some of them ahead of it.

Tests used:
[1] = Human liver microsomal stability; format: in vitro ADME; details: incubation with microsomes for 15 min at 5 μM
[2] = Rat liver microsomal stability; format: in vitro ADME; details: incubation with microsomes for 15 min at 5 μM
mGlu1 = mGlu1 (Homo sapiens, UniProt Q13255); test: Selectivity panel, mGlu1 Ca2+ assay; format: cell-based
mGlu3 = mGlu3 (Homo sapiens, UniProt Q14832); test: Selectivity panel, mGlu3 Ca2+ assay; format: cell-based
mGlu4 = mGlu4 (Homo sapiens, UniProt Q14833); test: Selectivity panel, mGlu4 assay; format: cell-based
mGlu5 = mGlu5 (Homo sapiens, UniProt P41594); test: Selectivity panel, mGlu5 Ca2+ assay; format: cell-based
mGlu6 = mGlu6 (Rattus norvegicus, UniProt P35349); test: Selectivity panel, mGlu6 [35S]GTPγS binding; format: biochemical
mGlu7 = mGlu7 (Homo sapiens, UniProt Q14831); test: Selectivity panel, mGlu7 Ca2+ assay; format: cell-based
mGlu8 = mGlu8 (Homo sapiens, UniProt O00222); test: Selectivity panel, mGlu8 Ca2+ assay; format: cell-based
[3] = Brain and plasma kinetics in rat after a single dose; format: in vivo, male Sprague Dawley rat
mGlu2 receptor [4] = molecular target: T1, mGlu2 receptor (Homo sapiens, UniProt Q14416); test: [35S]GTPγS binding assay, agonist mode; format: biochemical; details: for Emax: read-out: mGlu2 Ago EMAX ±SD
mGlu2 receptor [5] = molecular target: T1, mGlu2 receptor; test: [35S]GTPγS binding assay, PAM mode; format: biochemical
[6] = male, Sprague Dawley, brain, sc, 10 mg/kg
[7] = male, Sprague Dawley, plasma, sc, 10 mg/kg
[8] = male, Sprague Dawley, plasma, sc, 10 mg/kg, pH 3
[9] = male, Sprague Dawley, brain, po, 10 mg/kg
[10] = male, Sprague Dawley, plasma, po, 10 mg/kg
[11] = male, Sprague Dawley, brain/plasma, sc, 10 mg/kg

mGlu3, sequence (Q14832 23-879): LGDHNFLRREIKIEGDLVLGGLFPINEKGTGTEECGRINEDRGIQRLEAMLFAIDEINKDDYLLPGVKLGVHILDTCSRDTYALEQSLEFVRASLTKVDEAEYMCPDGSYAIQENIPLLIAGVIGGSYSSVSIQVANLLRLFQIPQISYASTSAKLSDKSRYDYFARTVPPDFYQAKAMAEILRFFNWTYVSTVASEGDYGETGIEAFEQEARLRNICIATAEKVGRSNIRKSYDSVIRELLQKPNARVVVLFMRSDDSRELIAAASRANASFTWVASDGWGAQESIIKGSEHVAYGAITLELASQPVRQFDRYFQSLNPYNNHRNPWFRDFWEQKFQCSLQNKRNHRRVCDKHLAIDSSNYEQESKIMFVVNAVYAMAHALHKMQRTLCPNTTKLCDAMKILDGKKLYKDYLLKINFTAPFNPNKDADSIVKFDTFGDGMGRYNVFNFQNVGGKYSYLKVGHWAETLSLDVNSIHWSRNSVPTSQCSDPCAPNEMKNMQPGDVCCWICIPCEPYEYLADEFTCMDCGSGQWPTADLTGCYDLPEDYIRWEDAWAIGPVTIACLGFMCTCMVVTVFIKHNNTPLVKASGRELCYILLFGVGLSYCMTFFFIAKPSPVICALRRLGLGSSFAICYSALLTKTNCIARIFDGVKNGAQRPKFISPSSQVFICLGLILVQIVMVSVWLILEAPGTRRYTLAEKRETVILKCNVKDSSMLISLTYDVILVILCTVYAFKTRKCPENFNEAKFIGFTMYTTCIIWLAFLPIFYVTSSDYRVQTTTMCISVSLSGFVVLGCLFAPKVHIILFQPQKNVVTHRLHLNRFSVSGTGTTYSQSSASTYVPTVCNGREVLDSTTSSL
mGlu8, sequence (O00222 34-908): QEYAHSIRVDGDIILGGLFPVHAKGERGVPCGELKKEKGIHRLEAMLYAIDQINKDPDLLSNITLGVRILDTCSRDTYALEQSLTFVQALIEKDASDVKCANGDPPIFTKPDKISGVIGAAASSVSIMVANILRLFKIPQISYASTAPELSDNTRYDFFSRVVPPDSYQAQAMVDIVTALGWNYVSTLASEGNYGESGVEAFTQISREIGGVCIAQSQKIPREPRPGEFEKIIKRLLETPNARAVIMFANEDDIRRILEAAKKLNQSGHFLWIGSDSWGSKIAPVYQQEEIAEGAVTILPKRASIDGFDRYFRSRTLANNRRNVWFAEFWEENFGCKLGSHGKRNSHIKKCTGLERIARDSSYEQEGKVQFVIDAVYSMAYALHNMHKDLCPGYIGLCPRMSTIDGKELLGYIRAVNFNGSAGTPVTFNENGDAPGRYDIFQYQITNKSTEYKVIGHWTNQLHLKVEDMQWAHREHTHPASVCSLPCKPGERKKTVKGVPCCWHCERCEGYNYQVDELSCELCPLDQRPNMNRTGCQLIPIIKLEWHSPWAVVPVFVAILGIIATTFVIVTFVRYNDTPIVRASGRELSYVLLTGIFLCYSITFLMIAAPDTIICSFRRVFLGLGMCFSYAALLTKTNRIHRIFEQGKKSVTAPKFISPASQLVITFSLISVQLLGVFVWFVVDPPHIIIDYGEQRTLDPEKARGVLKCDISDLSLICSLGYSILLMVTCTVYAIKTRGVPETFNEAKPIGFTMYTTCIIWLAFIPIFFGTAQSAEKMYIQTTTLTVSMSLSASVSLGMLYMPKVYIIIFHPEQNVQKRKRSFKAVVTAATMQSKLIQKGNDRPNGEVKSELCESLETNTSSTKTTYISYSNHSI
mGlu5, sequence (P41594 21-1212): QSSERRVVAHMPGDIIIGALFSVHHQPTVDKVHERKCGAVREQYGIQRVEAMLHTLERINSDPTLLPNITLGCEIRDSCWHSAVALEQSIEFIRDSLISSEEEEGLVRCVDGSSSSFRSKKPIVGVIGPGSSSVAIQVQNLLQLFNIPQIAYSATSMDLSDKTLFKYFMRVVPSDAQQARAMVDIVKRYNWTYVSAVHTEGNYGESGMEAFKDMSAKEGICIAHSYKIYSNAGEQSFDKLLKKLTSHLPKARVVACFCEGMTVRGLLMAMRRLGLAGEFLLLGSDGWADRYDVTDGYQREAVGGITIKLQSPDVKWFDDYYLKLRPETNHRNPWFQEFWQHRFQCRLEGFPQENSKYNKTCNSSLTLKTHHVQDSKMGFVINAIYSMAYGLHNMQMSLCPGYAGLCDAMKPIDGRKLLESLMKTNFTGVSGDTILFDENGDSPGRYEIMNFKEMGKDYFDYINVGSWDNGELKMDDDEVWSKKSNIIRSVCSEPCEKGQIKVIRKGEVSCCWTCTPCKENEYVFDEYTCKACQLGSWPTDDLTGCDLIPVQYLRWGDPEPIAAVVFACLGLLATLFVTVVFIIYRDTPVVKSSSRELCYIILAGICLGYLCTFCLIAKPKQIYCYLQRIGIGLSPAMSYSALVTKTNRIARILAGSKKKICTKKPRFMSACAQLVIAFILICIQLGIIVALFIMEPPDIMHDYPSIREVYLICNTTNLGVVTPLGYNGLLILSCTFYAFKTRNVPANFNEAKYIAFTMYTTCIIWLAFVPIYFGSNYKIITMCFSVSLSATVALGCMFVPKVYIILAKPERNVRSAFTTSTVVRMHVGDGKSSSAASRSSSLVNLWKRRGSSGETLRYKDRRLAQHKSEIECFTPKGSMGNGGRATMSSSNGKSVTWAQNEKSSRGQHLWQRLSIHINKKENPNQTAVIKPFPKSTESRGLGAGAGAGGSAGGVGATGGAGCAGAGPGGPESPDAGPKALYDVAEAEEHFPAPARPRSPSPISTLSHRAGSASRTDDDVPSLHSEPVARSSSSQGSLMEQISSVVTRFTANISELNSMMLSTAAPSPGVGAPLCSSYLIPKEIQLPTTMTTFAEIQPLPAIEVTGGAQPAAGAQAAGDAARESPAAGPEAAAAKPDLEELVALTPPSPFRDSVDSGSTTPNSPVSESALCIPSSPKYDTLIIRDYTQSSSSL
mGlu6, sequence (P35349 24-871): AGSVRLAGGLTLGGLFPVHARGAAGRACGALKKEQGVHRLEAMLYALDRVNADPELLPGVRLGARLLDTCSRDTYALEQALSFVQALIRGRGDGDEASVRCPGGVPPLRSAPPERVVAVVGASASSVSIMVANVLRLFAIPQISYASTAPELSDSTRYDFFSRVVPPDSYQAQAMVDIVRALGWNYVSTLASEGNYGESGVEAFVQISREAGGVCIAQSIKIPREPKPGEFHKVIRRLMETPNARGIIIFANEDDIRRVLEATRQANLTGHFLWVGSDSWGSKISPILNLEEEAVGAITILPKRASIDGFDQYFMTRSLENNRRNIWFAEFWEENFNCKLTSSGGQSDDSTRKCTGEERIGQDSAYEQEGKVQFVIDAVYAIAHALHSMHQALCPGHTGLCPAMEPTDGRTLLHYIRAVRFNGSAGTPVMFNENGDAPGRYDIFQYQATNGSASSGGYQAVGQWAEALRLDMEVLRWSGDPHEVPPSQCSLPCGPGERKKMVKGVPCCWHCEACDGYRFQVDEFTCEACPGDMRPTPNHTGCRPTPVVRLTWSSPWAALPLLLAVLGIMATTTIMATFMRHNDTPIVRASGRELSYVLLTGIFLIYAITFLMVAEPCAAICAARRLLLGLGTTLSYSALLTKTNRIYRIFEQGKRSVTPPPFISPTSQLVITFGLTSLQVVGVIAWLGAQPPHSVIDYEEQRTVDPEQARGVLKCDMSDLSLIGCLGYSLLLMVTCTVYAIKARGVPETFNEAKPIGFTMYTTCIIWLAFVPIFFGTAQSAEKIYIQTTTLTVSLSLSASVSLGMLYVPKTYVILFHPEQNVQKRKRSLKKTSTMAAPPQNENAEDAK
mGlu4, sequence (Q14833 33-912): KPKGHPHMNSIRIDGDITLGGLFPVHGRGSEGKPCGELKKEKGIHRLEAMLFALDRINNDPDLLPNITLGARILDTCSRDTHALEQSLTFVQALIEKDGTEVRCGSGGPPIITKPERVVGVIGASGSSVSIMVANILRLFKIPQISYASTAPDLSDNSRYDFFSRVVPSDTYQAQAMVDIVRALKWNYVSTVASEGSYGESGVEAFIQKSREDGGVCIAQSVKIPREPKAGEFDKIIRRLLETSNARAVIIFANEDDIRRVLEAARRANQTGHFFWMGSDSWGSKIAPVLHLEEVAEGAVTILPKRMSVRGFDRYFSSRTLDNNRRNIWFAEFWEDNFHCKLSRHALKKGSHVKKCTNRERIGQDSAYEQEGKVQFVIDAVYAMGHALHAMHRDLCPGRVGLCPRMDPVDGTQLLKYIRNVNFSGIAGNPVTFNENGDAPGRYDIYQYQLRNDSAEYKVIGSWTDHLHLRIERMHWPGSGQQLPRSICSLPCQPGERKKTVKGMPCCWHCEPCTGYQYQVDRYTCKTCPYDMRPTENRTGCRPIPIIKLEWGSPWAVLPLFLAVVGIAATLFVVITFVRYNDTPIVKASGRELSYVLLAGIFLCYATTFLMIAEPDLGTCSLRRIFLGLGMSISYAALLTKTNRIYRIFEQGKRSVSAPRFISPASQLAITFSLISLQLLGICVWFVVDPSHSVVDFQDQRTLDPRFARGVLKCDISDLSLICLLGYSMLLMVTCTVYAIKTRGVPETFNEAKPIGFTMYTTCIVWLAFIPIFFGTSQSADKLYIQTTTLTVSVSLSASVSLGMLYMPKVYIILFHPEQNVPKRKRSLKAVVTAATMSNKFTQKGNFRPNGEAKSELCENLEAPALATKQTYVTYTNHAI

HLM (%), percentage of compound metabolized [1]: 2%
RLM (%), percentage of compound metabolized [2]: 45%
Structure (SMILES): CCCCn1ccn2c(-c3ccc(OCC4CC4)c(Cl)c3)nnc2c1=O [Compound 4a, 7-Butyl-3-[3-chloro-4-(cyclopropylmethoxy)phenyl]-[1,2,4]triazolo[4,3-a]pyrazin-8-one]

HLM (%), percentage of compound metabolized [1]: 4%
RLM (%), percentage of compound metabolized [2]: 21%
Structure (SMILES): CCCCn1ncn2c(-c3ccc(OCC4CC4)c(Cl)c3)cnc2c1=O [Compound 4c, 7-Butyl-3-[3-chloro-4-(cyclopropylmethoxy)phenyl]imidazo[1,2-d][1,2,4]triazin-8-one]

fold decrease in mGlu2 PAM potency vs 3e (mGlu2 receptor [5]): ~10 fold
EC50 (mGlu2 receptor [4]): > 50.1 µM
Emax (mGlu2 receptor [4]): 12%
HLM (%), percentage of compound metabolized [1]: 31%
RLM (%), percentage of compound metabolized [2]: 74%
Structure (SMILES): CCCCn1ccn2c(-c3ccc(OCC4CC4)c(Cl)c3)nc(C)c2c1=O [Compound 4e, 7-Butyl-3-[3-chloro-4-(cyclopropylmethoxy)phenyl]-1-methyl-imidazo[1,5-a]pyrazin-8-one]

HLM (%), percentage of compound metabolized [1]: 1%
RLM (%), percentage of compound metabolized [2]: 25%
Structure (SMILES): CCCCn1cnn2c(-c3ccc(OCC4CC4)c(Cl)c3)cnc2c1=O [Compound 4b, 3-Butyl-7-[3-chloro-4-(cyclopropylmethoxy)phenyl]imidazo[2,1-f][1,2,4]triazin-4-one]

HLM (%), percentage of compound metabolized [1]: 0%
RLM (%), percentage of compound metabolized [2]: 60%
Structure (SMILES): CCCCn1cnc2c(-c3ccc(OCC4CC4)c(Cl)c3)c(C)nn2c1=O [Compound 4d, 3-Butyl-8-[3-chloro-4-(cyclopropylmethoxy)phenyl]-7-methyl-pyrazolo[1,5-a][1,3,5]triazin-4-one]

The remaining lines, values behind:

Structure (SMILES): CCCCn1ccn2c(-c3ccc(OCC4CC4)c(Cl)c3)c(C)nc2c1=O [Compound 3e]
HLM (%), percentage of compound metabolized [1]: 20%
RLM (%), percentage of compound metabolized [2]: 49%
EC50 (mGlu1): > 30 µM
IC50 (mGlu1): > 30 µM
Emax (mGlu1; read-out: mGlu1 agonism Emax): 4%
Emax (mGlu1; read-out: mGlu1 antagonism Emax): 18%
IC50 (mGlu3): > 30 µM
EC50 (mGlu3; mGlu3 PAM EC50, Ca2+ read-out): 14.3 µM
EC50 (mGlu3; mGlu3 agonism EC50, Ca2+ read-out): > 30 µM
Emax (mGlu3; read-out: mGlu3 PAM Emax): 63%
Emax (mGlu3; read-out: mGlu3 agonism Emax): 2%
Emax (mGlu3; read-out: mGlu3 antagonism Emax): 15%
EC50 (mGlu4): > 25 µM
IC50 (mGlu4): 17 µM
Emax (mGlu4; read-out: mGlu4 agonism Emax): 5%
Emax (mGlu4; read-out: mGlu4 antagonism Emax): 100%
EC50 (mGlu5): > 30 µM
IC50 (mGlu5): > 30 µM
Emax (mGlu5; read-out: mGlu5 PAM Emax): 0%
EC50 (mGlu5; read-out: mGlu5 agonism EC50, Ca2+ read-out): > 30 µM
Emax (mGlu5; read-out: mGlu5 agonism Emax): 0%
Emax (mGlu5; read-out: mGlu5 antagonism Emax): 7%
EC50 (mGlu6): > 30 µM
IC50 (mGlu6): 26.5 µM
Emax (mGlu6; read-out: mGlu6 agonism Emax): 1%
Emax (mGlu6; read-out: mGlu6 antagonism Emax): 53%
EC50 (mGlu7): > 25 µM
IC50 (mGlu7): 8.32 µM
Emax (mGlu7; read-out: mGlu7 PAM Emax): 5%
EC50 (mGlu7; read-out: mGlu7 agonism EC50, Ca2+ read-out): > 25 µM
Emax (mGlu7; read-out: mGlu7 agonism Emax): 1%
Emax (mGlu7; read-out: mGlu7 antagonism Emax): 27%
EC50 (mGlu8): > 25 µM
IC50 (mGlu8): > 25 µM
EC50 (mGlu8; read-out: mGlu8 agonism EC50, Ca2+ read-out): > 25 µM
Emax (mGlu8; read-out: mGlu8 agonism Emax): -4%
Emax (mGlu8; read-out: mGlu8 antagonism Emax): 16%
concentration at 1 h [3, 6]: 2540 ng/g
concentration at 2 h [3, 6]: 2860 ng/g
concentration at 4 h [3, 6]: 835 ng/g
concentration at 2 h [3, 7]: 1390 ng/mL
concentration at 4 h [3, 7]: 526 ng/mL
concentration at 1 h [3, 8]: 1420 ng/mL

Structure (SMILES): CCCCn1ccn2c(-c3ccc(Oc4ccccc4)cc3)c(C)nc2c1=O [Compound 3j]
EC50 (mGlu2 receptor [4]): 0.151 µM
Emax (mGlu2 receptor [4]): 48 ± 2%
HLM (%), percentage of compound metabolized [1]: 2%
RLM (%), percentage of compound metabolized [2]: 86%
brain level 4 h ([3]; 10 mg/kg p.o., 4 h): BQL ^d
concentration at 1 h [3, 9]: 104 ng/g
concentration at 2 h [3, 9]: 92 ng/g
Kp at 2 h ([3]; male, Sprague Dawley, brain/plasma, po, 10 mg/kg): 0.5
concentration at 1 h [3, 10]: 263 ng/mL
concentration at 2 h [3, 10]: 192 ng/mL
concentration at 4 h [3, 10]: 14 ng/mL

Structure (SMILES): CCCCn1ccn2c(-c3ccc(N4CCNCC4)c(Cl)c3)c(C)nc2c1=O [Compound 3g]
EC50 (mGlu2 receptor [4]): 0.989 µM
Emax (mGlu2 receptor [4]): 36 ± 4%
HLM (%), percentage of compound metabolized [1]: 0%
RLM (%), percentage of compound metabolized [2]: 17%

Structure (SMILES): CCCCn1ccn2c(CN3CCC(c4ccccc4)CC3)c(C)nc2c1=O [Compound 3a]
HLM (%), percentage of compound metabolized [1]: 20%
RLM (%), percentage of compound metabolized [2]: 58%

Structure (SMILES): CCCCn1ccn2c(-c3ccc4c(ccn4-c4cccnc4)c3)c(C)nc2c1=O [Compound 3i]
EC50 (mGlu2 receptor [4]): 0.229 µM
Emax (mGlu2 receptor [4]): 44%
HLM (%), percentage of compound metabolized [1]: 35%
RLM (%), percentage of compound metabolized [2]: 47%

Structure (SMILES): CCCCn1ccn2c(-c3ccc(NCc4ccc(OC)nc4)cc3)c(C)nc2c1=O [Compound 3d]
EC50 (mGlu2 receptor [4]): 0.571 µM
Emax (mGlu2 receptor [4]): 47 ± 1%
HLM (%), percentage of compound metabolized [1]: 59%
RLM (%), percentage of compound metabolized [2]: 36%
Kp at […] [3, 11]: 0.3

Structure (SMILES): CCCCn1ccn2c(-c3ccc(Oc4ccc(C)nc4C)c(F)c3)c(C)nc2c1=O [Compound 3c]
EC50 (mGlu2 receptor [4]): 1.82 µM
Emax (mGlu2 receptor [4]): 54%
HLM (%), percentage of compound metabolized [1]: 24%
RLM (%), percentage of compound metabolized [2]: 56%
concentration at 1 h [3, 6]: 446 ng/g
Kp at 1 h [3, 11]: 0.2
concentration at 1 h [3, 8]: 1820 ng/mL
